Measured values: patent US20210101881A1 (Ancureall Pharmaceutical (Shanghai) Co., Ltd., priority 2018, published 2021)

System: MOLM13 cells
Assay: Growth inhibition of CDK9-positive cell line MOLM13 in vitro (CCK8/MTT assay)
Type: cell-based, human
Settings: Homo sapiens, MOLM-13, read-out: IC50 of the compound for inhibiting cell growth, MOLM13 cells
Procedure: 1. MOLM13 cell line and cell culture MOLM13 is a CDK9-positive human acute myeloid leukemia cell line from DMSZ. Suspension culture was carried out in RPMI1640 (Gibco) medium with 10% fetal bovine serum (Gibco), 1% penicillin-streptomycin and 2 mM glutamine.
Suspended MOLM-13 cells in logarithmic growth phase were collected by centrifugation (1700 rpm, 3 minutes), the supernatant was discarded, and the cells were counted. A solution with a cell concentration of 2×10^5 cells per milliliter was formulated and inoculated in a 96-well plate (Corning) with 100 microliters per well. The plate was incubated at 37° C., 5% CO2 overnight. On the next day, the test compound was added to the cultured cells in two parallel wells. […]
The present compound and the control compounds were respectively dissolved in DMSO (Sigma).
When the solvent control well became dark yellow, the OD450 nm absorption value was measured, and the cell growth rate was calculated according to the following formula. Cell growth rate %=100*(T−T0)/(C−T0), wherein T=the optical density value of the drug-treated well—the optical density value of the blank control well, T0=the optical density value of the well before drug treatment—the optical density value of the blank control well, C=the optical density value of the solvent control well—the optical density value of the blank control well. […] The assay was repeated three times, and the data was subjected to a biological statistical analysis.

SMILES	IC50
CN1CCN(CCN(C)c2ccc(Nc3nccc(-n4cc(C(N)=O)c5ccccc54)n3)cc2)CC1 [Compound 73, 1-[2-(4-{methyl-[2-(4-methyl-piperazin-1-yl)-ethyl]-amino}-phenylamino)-pyrimidin-4-yl]-1H-indole-3-carboxamide]	1 to 10 nM

Same assay, conditions: Homo sapiens, MOLM-13; MOLM13 cells, cultured 3 to 6 days, CCK8; read-out: IC50 of the compound for inhibiting cell growth, MOLM13 cells

IC50	SMILES
1 to 10 nM	Cc1cnc(Nc2ccc(N3CCNCC3)cc2)nc1-n1cc(C(N)=O)c2ccccc21 [Compound 37, 1-[5-methyl-2-(4-piperazin-1-yl-phenylamino)-pyrimidin-4-yl]-1H-indole-3-carboxamide]
100 to 1000 nM	Cc1cc(-n2cc(C(N)=O)c3ccccc32)nc(Nc2ccc(N3CCNCC3)cc2)n1 [Compound 38, 1-[6-methyl-2-(4-piperazin-1-yl-phenylamino)-pyrimidin-4-yl]-1H-indole-3-carboxamide]
< 1 nM	COc1cc(Nc2ncc(F)c(-n3cc(C(N)=O)c4ccccc43)n2)ccc1N1CCNCC1 [Compound 40, 1-[5-fluoro-2-(3-methoxy-4-piperazin-1-yl-phenylamino)-pyrimidin-4-yl]-1H-indole-3-carboxamide]
1 to 10 nM	NC(=O)c1cn(-c2nc(Nc3ccc(N4CCNCC4)c(F)c3)ncc2F)c2ccccc12 [Compound 41, 1-[5-fluoro-2-(3-fluoro-4-piperazin-1-yl-phenylamino)-pyrimidin-4-yl]-1H-indole-3-carboxamide]
< 1 nM	COc1cc(Nc2ncc(Cl)c(-n3cc(C(N)=O)c4ccccc43)n2)ccc1N1CCNCC1 [Compound 43, 1-[5-chloro-2-(3-methoxy-4-piperazin-1-yl-phenylamino)-pyrimidin-4-yl]-1H-indole-3-carboxamide]
1 to 10 nM	NC(=O)c1cn(-c2nc(Nc3ccc(N4CCNCC4)c(F)c3)ncc2Cl)c2ccccc12 [Compound 44, 1-[5-chloro-2-(3-fluoro-4-piperazin-1-yl-phenylamino)-pyrimidin-4-yl]-1H-indole-3-carboxamide]
10 to 100 nM	CN1CCN(c2ccc(Nc3nccc(-n4cc(C(N)=O)c5ccccc54)n3)cc2)CC1 [Compound 45, 1-{2-[4-(4-methyl-piperazin-1-yl)-phenylamino]-pyrimidin-4-yl}-1H-indole-3-carboxamide]
1 to 10 nM	CN1CCN(c2ccc(Nc3nccc(-n4cc(C(N)=O)c5ccccc54)n3)cc2F)CC1 [Compound 46, 1-{2-[3-fluoro-4-(4-methyl-piperazin-1-yl)-phenylamino]-pyrimidin-4-yl}-1H-indole-3-carboxamide]
10 to 100 nM	CN1CCN(c2c(F)cc(Nc3nccc(-n4cc(C(N)=O)c5ccccc54)n3)cc2F)CC1 [Compound 47, 1-{2-[3,5-difluoro-4-(4-methyl-piperazin-1-yl)-phenylamino]-pyrimidin-4-yl}-1H-indole-3-carboxamide]
10 to 100 nM	COc1cc(Nc2nccc(-n3cc(C(N)=O)c4ccccc43)n2)ccc1N1CCN(C)CC1 [Compound 48, 1-{2-[3-methoxy-4-(4-methyl-piperazin-1-yl)-phenylamino]-pyrimidin-4-yl}-1H-indole-3-carboxamide]
1 to 10 nM	CN1CCN(c2ccc(Nc3nccc(-n4cc(C(N)=O)c5ccccc54)n3)cc2C#N)CC1 [Compound 49, 1-{2-[3-cyano-4-(4-methyl-piperazin-1-yl)-phenylamino]-pyrimidin-4-yl}-1H-indole-3-carboxamide]
1 to 10 nM	Cc1cc(Nc2nccc(-n3cc(C(N)=O)c4ccccc43)n2)ccc1N1CCN(C)CC1 [Compound 50, 1-{2-[3-methyl-4-(4-methyl-piperazin-1-yl)-phenylamino]-pyrimidin-4-yl}-1H-indole-3-carboxamide]
1 to 10 nM	Cc1cc(Nc2nccc(-n3cc(C(N)=O)c4ccccc43)n2)ccc1N1CCN(C(C)C)CC1 [Compound 51, 1-{2-[4-(4-isopropyl-piperazin-1-yl)-3-methyl-phenylamino]-pyrimidin-4-yl}-1H-indole-3-carboxamide]
1 to 10 nM	CN1CCN(c2ccc(Nc3ncc(F)c(-n4cc(C(N)=O)c5ccccc54)n3)cc2)CC1 [Compound 52, 1-{5-fluoro-2-[4-(4-methyl-piperazin-1-yl)-phenylamino]-pyrimidin-4-yl}-1H-indole-3-carboxamide]
1 to 10 nM	CN1CCN(c2ccc(Nc3ncc(Cl)c(-n4cc(C(N)=O)c5ccccc54)n3)cc2)CC1 [Compound 53, 1-{5-chloro-2-[4-(4-methyl-piperazin-1-yl)-phenylamino]-pyrimidin-4-yl}-1H-indole-3-carboxamide]
1 to 10 nM	CN1CCN(c2ccc(Nc3ncc(F)c(-n4cc(C(N)=O)c5ccccc54)n3)cc2F)CC1 [Compound 54, 1-{5-fluoro-2-[3-fluoro-4-(4-methyl-piperazin-1-yl)-phenylamino]-pyrimidin-4-yl}-1H-indole-3-carboxamide]

IC50	SMILES
1 to 10 nM	CCN1CCN(c2ccc(Nc3ncc(F)c(-n4cc(C(N)=O)c5ccccc54)n3)cc2C)CC1 [Compound 57, 1-{2-[4-(4-ethyl-piperazin-1-yl)-3-methyl-phenylamino]-5-fluoro-pyrimidin-4-yl}-1H-indole-3-carboxamide]
< 1 nM	CCN1CCN(c2ccc(Nc3ncc(Cl)c(-n4cc(C(N)=O)c5ccccc54)n3)cc2C)CC1 [Compound 58, 1-{5-chloro-2-[4-(4-ethyl-piperazin-1-yl)-3-methyl-phenylamino]-pyrimidin-4-yl}-1H-indole-3-carboxamide]
1 to 10 nM	Cc1cc(Nc2ncc(F)c(-n3cc(C(N)=O)c4ccccc43)n2)ccc1N1CCN(C(C)C)CC1 [Compound 59, 1-{5-fluoro-2-[4-(4-isopropyl-piperazin-1-yl)-3-methyl-phenylamino]-pyrimidin-4-yl}-1H-indole-3-carboxamide]
1 to 10 nM	CN1CCN(c2ccc(Nc3ncc(Cl)c(-n4cc(C(N)=O)c5ccccc54)n3)cc2F)CC1 [Compound 61, 1-{5-chloro-2-[3-fluoro-4-(4-methyl-piperazin-1-yl)-phenylamino]-pyrimidin-4-yl}-1H-indole-3-carboxamide]
10 to 100 nM	CN1CCC(N2CCN(c3ccc(Nc4nccc(-n5cc(C(N)=O)c6ccccc65)n4)cc3F)CC2)CC1 [Compound 62, 1-(2-{3-fluoro-4-[4-(1-methyl-piperidin-4-yl)-piperazin-1-yl]-phenylamino}-pyrimidin-4-yl)-1H-indole-3-carboxamide]
1 to 10 nM	CN(C)CCN1CCN(c2ccc(Nc3nccc(-n4cc(C(N)=O)c5ccccc54)n3)cc2F)CC1 [Compound 63, 1-(2-{4-[4-(2-dimethylamino-ethyl)-piperazin-1-yl]-3-fluoro-phenylamino}-pyrimidin-4-yl)-1H-indole-3-carboxamide]
10 to 100 nM	C=CC(=O)N1CCN(c2ccc(Nc3nccc(-n4cc(C(N)=O)c5ccccc54)n3)cc2C)CC1 [Compound 64, 1-{2-[4-(4-acryloyl-piperazin-1-yl)-3-methyl-phenylamino]-pyrimidin-4-yl}-1H-indole-3-carboxamide]
10 to 100 nM	CCC(=O)N1CCN(c2ccc(Nc3nccc(-n4cc(C(N)=O)c5ccccc54)n3)cc2C)CC1 [Compound 65, 1-{2-[3-methyl-4-(4-propionyl-piperazin-1-yl)-phenylamino]-pyrimidin-4-yl}-1H-indole-3-carboxamide]
10 to 100 nM	CC(=O)N1CCN(c2ccc(Nc3nccc(-n4cc(C(N)=O)c5ccccc54)n3)cc2F)CC1 [Compound 66, 1-{2-[4-(4-acetyl-piperazin-1-yl)-3-fluoro-phenylamino]-pyrimidin-4-yl}-1H-indole-3-carboxamide]
10 to 100 nM	COC1CCN(c2ccc(Nc3nccc(-n4cc(C(N)=O)c5ccccc54)n3)cc2)CC1 [Compound 67, 1-{2-[4-(4-methoxy-piperidin-1-yl)-phenylamino]-pyrimidin-4-yl}-1H-indole-3-carboxamide]
1 to 10 nM	Cc1cc(Nc2nccc(-n3cc(C(N)=O)c4ccccc43)n2)ccc1N1CCC(N(C)C)CC1 [Compound 68, 1-{2-[4-(4-dimethylamino-piperidin-1-yl)-3-methyl-phenylamino]-pyrimidin-4-yl}-1H-indole-3-carboxamide]
1 to 10 nM	CN1CCCN(c2ccc(Nc3nccc(-n4cc(C(N)=O)c5ccccc54)n3)cc2)CC1 [Compound 69, 1-{2-[4-(4-methyl-[1,4]homopiperazin-1-yl)-phenylamino]-pyrimidin-4-yl}-1H-indole-3-carboxamide]
10 to 100 nM	NC(=O)c1cn(-c2ccnc(Nc3ccc(N4CCOCC4)cc3)n2)c2ccccc12 [Compound 70, 1-[2-(4-morpholin-4-yl-phenylamino)-pyrimidin-4-yl]-1H-indole-3-carboxamide]
10 to 100 nM	NC(=O)c1cn(-c2ccnc(Nc3ccc(N4CCOCC4)c(F)c3)n2)c2ccccc12 [Compound 71, 1-[2-(3-fluoro-4-morpholin-4-yl-phenylamino)-pyrimidin-4-yl]-1H-indole-3-carboxamide]
10 to 100 nM	CN(CCN1CCOCC1)c1ccc(Nc2nccc(-n3cc(C(N)=O)c4ccccc43)n2)cc1 [Compound 72, 1-(2-{4-[methyl-(2-morpholin-4-ethyl)-amino]-phenylamino}-pyrimidin-4-yl)-1H-indole-3-carboxamide]
10 to 100 nM	CC(=O)N1CCN(CCN(C)c2ccc(Nc3nccc(-n4cc(C(N)=O)c5ccccc54)n3)cc2)CC1 [Compound 74]
